Data from patent publication US20040002441A1, “Recombination modulators and methods for producing and using the same” (priority 2000, published 2004).
Several values for one entry are separate records, joined by “and”; a condition that tells them apart may be missing. Equal entries are not always repeated. Entries after “also recorded” stand apart in the source; their conditions may differ. Where no end group is shown, it is not given here.

Legend:
[1] = biological target: bacteriophage λ Integrase (Int) (Escherichia phage lambda, UniProt P03700); assay: Int-mediated excisive recombination; assay type: biochemical; details: for IC50: IC50, inhibition of excisive recombination, excision pathway
Protocol: FIG. 11 depicts effect of peptide KWWCRW (diamonds) and peptide KWWWRW (squares) on the remaining 3 pathways of Int-mediated recombination. Recombination extents were normalized to the amount of recombination in untreated reactions and expressed as relative % recombination. A. Effect of peptides on integrative recombination (IC50 values for both peptides are roughly 0.2 μM). Reactions were assembled as for bent-L recombination except that they were incubated at room temperature, the substrates were a supercoiled plasmid (4.8 kb) carrying attP and ^32P labeled 91 bp PCR fragment encoding attB. […] The recombination substrates were PCR fragments encoding the attL (^32P-labeled) and attR sites. Reactions contained 50 NM Xis in addition to Int and IHF (37 nM), as well as 100 ng salmon sperm DNA, and were incubated at room temperature. C. Effect of peptides on straight-L recombination (IC50 values for peptide KWWCRW is 0.06 μM, while for peptide KWWWRW is slightly over 0.1 μM). Reactions were assembled as for bent-L recombination except that they were incubated at room temperature; the substrates were two PCR fragments, one of which was ^32P-labeled and 187 bp, the other of which was unlabeled and 496 bp.
Int Assays. Site-specific recombination and gel mobility shift assays were performed as described (Segall, 1998). Briefly, reactions were performed in a total volume of 10 or 20 μl and typically contained 1-2 nM radiolabeled att site as specified, 4 nM unlabeled att site, 100-300 ng salmon sperm DNA as nonspecific competitor, 44 mM Tris-Ci (pH 8.0), 60 mM KCl, 0.05 mg/ml bovine serum albumin, 7 mM Tris borate (pH 8.9), 5 mM spermidine, 1.3 mM EDTA, and 14.6% v/v glycerol. […] Dried gels were visualized and quantitated using a Molecular Dynamics PhosphorImager.
Excision reactions: Reactions were performed in 10 μL volume containing 20 mM Tris-HCl pH 8, 5 mM spermidine, 0.2 μg BSA, 75 ng to 0.15 μg salmon sperm DNA, 30 mM KCl, and TE (recombination mix). […] All gel images were visualized with a PhosphorImager (Molecular Dynamics) and quantitated with ImageQuant software (Molecular Dynamics).

[2] = biological target: T1, E. coli topoisomerase I (type Ia) (Escherichia coli, UniProt P06612); assay: biochemical; details: for IC50: IC50, DNA relaxation (activity reduced by one-half), supercoiled DNA
T1 sequence (P06612 1-865): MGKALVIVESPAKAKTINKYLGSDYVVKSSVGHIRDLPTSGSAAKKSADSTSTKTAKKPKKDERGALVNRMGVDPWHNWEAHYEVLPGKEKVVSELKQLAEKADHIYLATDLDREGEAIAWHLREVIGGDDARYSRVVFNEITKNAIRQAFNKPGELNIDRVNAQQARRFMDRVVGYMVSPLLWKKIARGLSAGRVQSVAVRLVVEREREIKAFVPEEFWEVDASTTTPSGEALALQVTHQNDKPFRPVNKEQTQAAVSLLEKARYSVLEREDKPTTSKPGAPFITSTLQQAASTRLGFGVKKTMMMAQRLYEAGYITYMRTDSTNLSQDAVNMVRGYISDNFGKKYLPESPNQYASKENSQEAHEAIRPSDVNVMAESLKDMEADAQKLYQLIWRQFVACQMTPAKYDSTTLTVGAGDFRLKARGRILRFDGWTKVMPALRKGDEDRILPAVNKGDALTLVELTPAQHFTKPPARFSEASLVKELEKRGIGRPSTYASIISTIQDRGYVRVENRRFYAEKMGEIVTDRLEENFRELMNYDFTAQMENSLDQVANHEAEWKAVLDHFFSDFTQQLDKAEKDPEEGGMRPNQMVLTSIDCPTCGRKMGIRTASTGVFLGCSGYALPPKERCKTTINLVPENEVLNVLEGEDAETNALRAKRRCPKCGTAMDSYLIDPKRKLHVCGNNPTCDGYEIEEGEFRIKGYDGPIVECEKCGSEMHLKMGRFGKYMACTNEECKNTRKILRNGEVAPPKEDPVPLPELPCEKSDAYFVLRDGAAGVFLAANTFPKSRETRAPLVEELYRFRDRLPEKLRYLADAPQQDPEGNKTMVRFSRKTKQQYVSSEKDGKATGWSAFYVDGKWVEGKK
From the text: E. coli topoisomerase I (TopA) exemplifies the type IA topoisomerase family. Type IA enzymes are mechanistically and structurally unrelated to the topoisomerase IB/tyrosine recombinase superfamily of DNA strand transferases.

double-stranded DNA = assay: Peptide binding to DNA (electrophoretic mobility shift)
From the text: Do peptides KWWCRW and KWWWRW inhibit recombination by interfering with the formation of higher order complexes? The formation of intermediates in the bent-L pathway depends on Int contacting two different types of sites, the higher affinity arm sites and the lower affinity core sites flanking the loci of DNA cleavage and strand exchange (FIG. 9). […] To determine the effect of KWWCRW on interactions of Int with its core binding sites, we assembled the recombination complexes, known as intasomes or unimolecular complexes (UMC), on an attL variant substrate with 4 mutations in the IHF binding site, collectively known as QH′. These mutations prevent the specific binding of IHF to the QH′ sequence (Gardner and Nash, 1986), but still allow IHF to bind and bend DNA nonspecifically (Segall et al., 1994). […] We next tested the assembly of bent-L pathway intermediates. At 10 μM peptide, all of the labeled DNA was shifted into the well. However, at lower peptide concentrations that still inhibited recombination (0.1-1 μM), intermediates were assembled normally. In fact, one of the intermediates, the bimolecular complex (BMC), accumulates substantially in the presence of the peptide (see also FIG. 12). […] This agrees perfectly with our observations that suboptimal concentrations of peptide lead to accumulation of Holliday junctions (FIG. 10). […] The peptide shifts att site DNA even in the complete absence of Int (data not shown), confirming that KWWCRW interacts with DNA in a concentration-dependent fashion and in a manner that affects the mobility of the DNA much more drastically than expected for the size of the peptides.
Int Assays. Site-specific recombination and gel mobility shift assays were performed as described (Segall, 1998). Briefly, reactions were performed in a total volume of 10 or 20 μl and typically contained 1-2 nM radiolabeled att site as specified, 4 nM unlabeled att site, 100-300 ng salmon sperm DNA as nonspecific competitor, 44 mM Tris-Ci (pH 8.0), 60 mM KCl, 0.05 mg/ml bovine serum albumin, 7 mM Tris borate (pH 8.9), 5 mM spermidine, 1.3 mM EDTA, and 14.6% v/v glycerol. Any deviation from this formulation is noted in the figure legends. Gel shift reactions were incubated for 90 minutes at 37° C., layered without loading dyes onto 5% native polyacrylamide gel (29 acrylamide: 1 bis-acrylamide) and electrophoresed in 0.5× Tris borate EDTA buffer. Recombination reactions were stopped with 0.2× volume of 2% SDS, layered onto 5% polyacrylamide Tris/SDS gels, and electrophoresed in 1× Tris Tricine SDS buffer at 100 mA (Segall, 1998). Dried gels were visualized and quantitated using a Molecular Dynamics PhosphorImager.

Chain of bacteriophage λ Integrase (Int) (P03700 whole entry, the tested form may be a part): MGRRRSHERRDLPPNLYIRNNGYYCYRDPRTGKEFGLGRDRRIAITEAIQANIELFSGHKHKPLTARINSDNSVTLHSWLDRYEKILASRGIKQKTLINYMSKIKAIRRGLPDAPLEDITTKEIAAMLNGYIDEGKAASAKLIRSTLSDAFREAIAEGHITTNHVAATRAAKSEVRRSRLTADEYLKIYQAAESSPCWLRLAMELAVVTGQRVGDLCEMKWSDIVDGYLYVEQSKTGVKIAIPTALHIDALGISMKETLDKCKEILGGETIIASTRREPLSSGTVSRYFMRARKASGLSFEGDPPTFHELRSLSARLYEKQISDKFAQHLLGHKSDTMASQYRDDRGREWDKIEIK
Chain of bacteriophage λ Integrase (Int) (P0A6X7 whole entry partner, the tested form may be a part): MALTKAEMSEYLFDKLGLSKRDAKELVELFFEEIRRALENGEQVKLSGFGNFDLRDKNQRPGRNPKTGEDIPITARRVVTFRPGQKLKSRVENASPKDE
Chain of bacteriophage λ Integrase (Int) (P0A6Y1 whole entry partner, the tested form may be a part): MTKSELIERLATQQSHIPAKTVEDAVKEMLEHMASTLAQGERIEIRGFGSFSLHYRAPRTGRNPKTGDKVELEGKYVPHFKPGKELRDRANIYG
Chain of bacteriophage λ Integrase (Int) (P03699 whole entry partner, the tested form may be a part): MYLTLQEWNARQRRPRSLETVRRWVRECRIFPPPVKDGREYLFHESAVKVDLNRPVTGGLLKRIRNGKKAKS

| Substance | IC50 [1] | IC50 [2] [µM] | binding to DNA (double-stranded DNA) | peptide concentration that shifts the mobility of double-stranded DNA (double-stranded DNA; reactions with at least 50 ng salmon sperm DNA) [µM] | EC50 [1] [µM] | effect on DNA relaxation ([2]; peptide concentrations up to 42 μM) |
| --- | --- | --- | --- | --- | --- | --- |
| KWWCRW-NH2 [Peptide 59, KWWCRW] | 1.1 µM and ~1.1 µM | 8 | appear to bind to DNA; also recorded: binds double stranded DNA by itself | ≥ 5 | – | – |
| KWWWRW-NH2 [Peptide 56, KWWWRW] | ~1.1 µM | 7 to 10 | appear to bind to DNA | – | – | – |
| WKHYNY-NH2 [Peptide 52, WKHYNY] | – | – | do not bind double-stranded DNA | – | 10 to 20 | no effect |
